In patent publication US20240350667A1, “Method of Enhancing Gene Therapy by Targeting cGAS-STING Pathway” (Spark Therapeutics, Inc., priority 2021, published 2024):

Tests used:
[1] = system: interferon regulatory factor (IRF) pathway in THP1-Dual cells; assay: In vitro H-151 inhibition of DNA-LNP-induced IRF activation (Lucia luciferase in THP1-Dual cell supernatant); format: cell-based; settings: 25 ng DNA-LNP/well, 24 hours, FIG. 1
Procedure: THP1-Dual™ cells (InvivoGen) were seeded in 96-well plates at a density of 45,000 cells/well. After overnight incubation, the cells were treated with 25 ng DNA-LNP/well in the presence of 0, 0.2 or 2.1 ng of small molecule STING inhibitor H-151 (InvivoGen), where the H-151 was provided either a) co-encapsulated with the DNA in the LNPs, or b) provided in a soluble form. After 24 hours incubation, activation of the interferon regulatory factor (IRF) pathway (“fold IRF activity”) was determined by measuring luminescence signal (Lucia luciferase) in the cell culture supernatant. The DNA-LNP was made up of (1) DNA plasmid (nanoplasmid expression cassette encoding human coagulation Factor IX (hFIX)) and (2) Lipid 5 (further described in Sabnis et al. and I.A. infra.), 50%; C14-PEG2000, 1.5%; cholesterol, 38.5%; and DSPC, 10%.

[2] = system: DNA-LNP-induced plasma cytokines; assay: In vivo LNP-encapsulated H-151 inhibition of DNA-LNP-induced cytokine release; set-up: species or system BALB/c mice; settings: H-151 encapsulated in 10 μg DNA-LNP, about 1-2 μg/mouse, 4 hours post injection
Procedure: BALB/c mice were injected with 10 μg DNA-LNP or 10 μg DNA-LNP encapsulating H-151. H-151 was provided at a dose of about 1-2 μg/mouse (about 0.04-0.08 mg/kg mouse) Cytokine levels in plasma were measured at 4 hours post injection. FIGS. 2A, 2B, 2C, and 2D illustrate the ability of H-151 encapsulated with the DNA-LNP to inhibit DNA-induced IFN-β (FIG. 2A), IFN-α (FIG. 2B), IFN-γ (FIG. 2C) and IL-6 (FIG. 2D). The DNA-LNP was as described in Example 1, above.

[3] = system: DNA-LNP-induced plasma cytokine/chemokine levels; assay: In vivo RO3150 and GSK690693 inhibition of DNA-LNP-induced cytokine release; set-up: species or system BALB/c mice; settings: pre-treatment before DNA-LNP: dexamethasone 200 μg IP, GSK690693 312.5 μg IP (about one hour prior), RO3150 60 μg IV (right before); plasma at 4 hours; FIGS. 3A-3H
Procedure: BALB/c mice were pre-treated with dexamethasone, GSK690693, or RO3150 before DNA-LNP administration, and plasma cytokine levels were measured at 4 hours post DNA-LNP treatment. The DNA-LNP was made up of (1) DNA plasmid (nanoplasmid expression cassette encoding hFIX); and (2) GenVoy-ILM™ LNP. GenVoy-ILM™ LNP contains ionizable lipid at 50%; DSPC at 10%; cholesterol 37.5%; and stabilizer (PEG-Lipid) at 2.5% (see Roces et al., Pharmaceutics, 2020 12, 1095). Pretreatment was carried out using 200 μg dexamethasone administered intraperitoneally about one hour prior to DNA-LNP administration; using 312.5 μg GSK69063 administered intraperitoneally about one hour prior to DNA-LNP administration; or using 60 μg […] administered intravenously right before DNA-LNP administration.

Row | SMILES | effect on LNP-DNA-induced IRF activation (fold IRF activity), compared with soluble H-151 ([1]; H-151 co-encapsulated with the DNA in the LNP, 0.2 or 2.1 ng/well) | effect on LNP-DNA-induced IRF activation (fold IRF activity) ([1]; soluble H-151, 0.2 or 2.1 ng/well) | DNA-induced IFN-β in plasma ([2]; FIG. 2A) | DNA-induced IFN-α in plasma ([2]; FIG. 2B) | DNA-induced IFN-γ in plasma ([2]; FIG. 2C) | DNA-induced IL-6 in plasma ([2]; FIG. 2D) | cytokine/chemokine levels induced by DNA-LNP [3]
1 | CCc1ccc(NC(=O)Nc2c[nH]c3ccccc23)cc1 [H-151] | more pronounced | had an inhibitory effect | inhibit | inhibit | inhibit | inhibit | 
2 | CCn1c(-c2nonc2N)nc2c(C#CC(C)(C)O)ncc(OC[C@H]3CCCNC3)c21 [GSK690693] |  |  |  |  |  |  | reduced most cytokine/chemokine levels except IL-6 and KC/GRO
